Values after ≈ are worked out from the molar mass of the structure shown. Where two headings read alike, the source gives them in different places.
Assays:
S180 carcinoma = system: S180 carcinoma
Protocol: S-180 cells were inoculated subcutaneously to mice at the axillary region at 0.5-1×10^6 cells/mouse. […] The drugs were given 6-8 times in total, one day spaced between two administrations for all the experiments. At the end of experiments, the tumors were removed and weighed, and the tumor inhibition ratio (TIR) was calculated. Pharmaceutical efficacy was considered with TIR≧40% and P<0.05, after statistical analysis.
The prepared solution was filtered through 0.45 and 0.22 μm membrane for sterilization, divided into stock aliquots, and stored at 4° C. for future use. The stock aliquot was further diluted with sterilized PBS (pH=7.4) to the required concentration before drug administration.
5-FU, CTX, and carboplatin solutions were freshly prepared in normal saline before use. […] Mice with the same sex were used in any individual experiment.
S180 cell line was from S180 bearing mice, and was intraperitoneally passaged in Kunming mouse.
Carcinoma inoculation and drug treatment: To each mouse, 0.2 ml of the S180 and H22 cell suspensions (2.5×10^6 cells/ml) were subcutaneously injected into the right axillary region (a total of 5×10^5 cells per mouse), respectively. On the second day, the animals were grouped at random and drugs were administered accordingly. […] The drugs were given once every other day with a total of 6-8 treatments.
Determination of tumor weight and calculation of TIR (tumor inhibition ratio), were as follows. Body weight was recorded on the day after the last drug administration and animals were then sacrificed. The carcinoma was removed and weighed, and TIR (%) was calculated according the following formula: […]

in vivo = details: both, Kunming, mouse
Protocol: Major organs of dead animals were removed, fixed, and subject to pathological study. […] Normal saline (36.25 ml) and 37% HCl (0.75 ml) were added to obtained the AMP stock solution with a concentration of 50 mg/ml and pH of 7.3 (concentrations of solvents including PEG 400, propanediol, and ethanol were 0.03, 0.0445, and 0.015 g/ml, respectively). […] The stock solution was further diluted in normal saline to the required concentration, and was i.v. or i.p. administered to mice at 0.2 ml/10 g bodyweight.
Both male and female Kuming mice of SPF grade, weighing 18-22 g, were used in the experiment. […] All data were analyzed by DAS software.

[1] = Solubility and solution stability; format: physicochemical; details: pure AMP, white powder
[2] = system: human leukemia K562 cells; test: MTT assay, in vitro killing of K562 cells; format: cell-based; details: for IC50: Homo sapiens
Protocol: (1) AMP Na: An AMP-Na solution was prepared according to the method of Example 1 at an AMP:Na2CO3 ratio (w/w) of 5:3, which was then diluted 10 times with PBS (pH 6.5) to obtain the AMP-Na stock solution. The stock solution was further diluted by PBS (pH 7.4) to the concentration for cell exposure.
All the drug solutions described above were freshly prepared before use, and the final concentration for cell exposure was 100, 50, 25, 12.5, and 6.25 μg/ml, respectively.
K562 cells were cultured in RPMI1640 culture media supplemented with 10% calf serum, 100 U/ml of penicillin and streptomycin.
1. K562 cells at their log growth period were collected and centrifuged at 1,000 rpm for 5 minutes. The supernatant was discarded, and the cell density was adjusted to 1×10^5 cells/ml with RPMI 1640 cell culture media.
2. Ten microliter of the drug solution at various concentrations and 90 μl of the cell suspension or cell culture media were added to each well of the 96-well plate, followed by incubation in a CO2 incubator.
3. Cells were cultured for another 48-hour or 72-hour. Ten microliter of the MTT solution was added to per well 4 hours before the end of the experiment. Then, the solution was discarded and 100 μl of 10% SDS was added for termination of the experiment.
4. The absorbance of the solution was measured at 570 nm using a plate reader after being shaken on a shaker for 10 minutes. Results were printed out and recorded.
The inhibition ratio (%) was calculated from the following equation: […]
IC50 was calculated by linear regression of drug concentration v.s. cell inhibition ratio.

[3] = carboplatin experiment, carboplatin 25 mg/kg, ip alone

Compound: O=c1[nH]cc(F)c(=O)[nH]1 [5-FU, reference compound]
- TIR (%) (S180 carcinoma; 5-FU experiment, 5-FU 20 mg/kg, ip alone): 45.55%
- Tumor weight (g) (X ± SD) (S180 carcinoma; 5-FU experiment, 5-FU 20 mg/kg, ip alone, 11 days before sacrifice): 1.08 ± 0.60 g

Compound: O=C1c2c(O)cc(O)cc2O[C@H](c2cc(O)c(O)c(O)c2)[C@H]1O [AMP-DMSO, AMPelopsin, reference compound]
- LD50 at 7 day (in vivo): 1000 mg/kg
- LD50 at 7 day (in vivo; iv): 1000 mg/kg
- Solubility in water [1]: does not dissolve
- IC50 ([2]; K562, 72 h): 4.09 µg/mL (≈ 12.8 µM)
- IC50 ([2]; K562, after drug exposure for 48 h and 72 h): 32.3 µg/mL (≈ 101 µM)
- IC50 ([2]; K562, cell treatment for 48 h): 32.3 µg/mL (≈ 101 µM)

Compound: O.O.O.O.O.O=C1c2c(O)cc([O-])cc2OC(c2cc([O-])c(O)c([O-])c2)C1[O-].[Na+].[Na+].[Na+].[Na+] (stereo not shown) [AMP-Na, pentahydrate of the AMPelopsin unsaturated sodium salt]
- IC50 in killing K562 cells ([2]; 48 h): 29.56 µg/mL
- Killing effects towards K562 cells, AMP-Na compared with AMP-DMSO ([2]; 48 h and 72 h): no significant difference
- IC50 in killing K562 cells ([2]; 72 h): 4.23 µg/mL
- IC50 in killing K562 cells ([2]; after drug exposure for 48 h and 72 h): 29.56 µg/mL
- TIR (%) (S180 carcinoma; 5-FU experiment, AMP-Na 50 mg/kg, ip, alone or jointly with 5-FU): 4.43%
- Tumor weight (g) (X ± SD) (S180 carcinoma; 5-FU experiment, AMP-Na 50 mg/kg, ip, alone or jointly with 5-FU, 11 days): 1.89 ± 0.75 g
- TIR (%) (S180 carcinoma; 5-FU experiment, AMP-Na 75 mg/kg, ip, alone or jointly with 5-FU): 31.28%
- Tumor weight (g) (X ± SD) (S180 carcinoma; 5-FU experiment, AMP-Na 75 mg/kg, ip, alone or jointly with 5-FU, 11 days): 1.36 ± 0.69 g
- Tumor weight (g) (X ± SD) (S180 carcinoma; 5-FU experiment, AMP-Na 112 mg/kg, ip, alone or jointly with 5-FU, 11 days): 1.32 ± 0.78 g
- TIR (%) (S180 carcinoma; 5-FU experiment, AMP-Na 112 mg/kg, ip, alone or jointly with 5-FU, sodium salt): 33.49%
- TIR (%) (S180 carcinoma; 5-FU experiment, AMP-Na 167 mg/kg, ip, alone or jointly with 5-FU): 4.45%
- Tumor weight (g) (X ± SD) (S180 carcinoma; 5-FU experiment, AMP-Na 167 mg/kg, ip, alone or jointly with 5-FU, 11 days): 1.89 ± 0.59 g
- T1R (%) (S180 carcinoma; CTX experiment, AMP-Na 50 mg/kg, ip, alone or jointly with CTX): 7.66%
- Tumor weight (g) (X ± SD) (S180 carcinoma; CTX experiment, AMP-Na 50 mg/kg, ip, alone or jointly with CTX, 12 days): 1.66 ± 0.84 g
- T1R (%) (S180 carcinoma; CTX experiment, AMP-Na 75 mg/kg, ip, alone or jointly with CTX): 6.84%
- Tumor weight (g) (X ± SD) (S180 carcinoma; CTX experiment, AMP-Na 75 mg/kg, ip, alone or jointly with CTX, 12 days): 1.67 ± 1.03 g
- T1R (%) (S180 carcinoma; CTX experiment, AMP-Na 112 mg/kg, ip, alone or jointly with CTX): −3.86%
- Tumor weight (g) (X ± SD) (S180 carcinoma; CTX experiment, AMP-Na 112 mg/kg, ip, alone or jointly with CTX, 12 days): 1.86 ± 1.21 g
- T1R (%) (S180 carcinoma; CTX experiment, AMP-Na 167 mg/kg, ip, alone or jointly with CTX): −16.25%
- Tumor weight (g) (X ± SD) (S180 carcinoma; CTX experiment, AMP-Na 167 mg/kg, ip, alone or jointly with CTX, 12 days): 2.08 ± 1.07 g
- TIR (%) (S180 carcinoma; carboplatin experiment, AMP-Na 50 mg/kg, ip, alone or jointly with carboplatin): 23.22%
- Tumor weight (g) (X ± SD) (S180 carcinoma; carboplatin experiment, AMP-Na 50 mg/kg, ip, alone or jointly with carboplatin, 10 days): 1.12 ± 0.30 g
- TIR (%) (S180 carcinoma; carboplatin experiment, AMP-Na 75 mg/kg, ip, alone or jointly with carboplatin): 3.99%
- Tumor weight (g) (X ± SD) (S180 carcinoma; carboplatin experiment, AMP-Na 75 mg/kg, ip, alone or jointly with carboplatin, 10 days): 1.40 ± 0.58 g
- TIR (%) (S180 carcinoma; carboplatin experiment, AMP-Na 112 mg/kg, ip, alone or jointly with carboplatin): 13.87%
- Tumor weight (g) (X ± SD) (S180 carcinoma; carboplatin experiment, AMP-Na 112 mg/kg, ip, alone or jointly with carboplatin, 10 days): 1.26 ± 0.69 g
- TIR (%) (S180 carcinoma; carboplatin experiment, AMP-Na 167 mg/kg, ip, alone or jointly with carboplatin): −7.47%
- Tumor weight (g) (X ± SD) (S180 carcinoma; carboplatin experiment, AMP-Na 167 mg/kg, ip, alone or jointly with carboplatin, 10 days): 1.57 ± 0.71 g
- Tumor suppression, AMP-Na alone (S180 carcinoma; single administration, S-180 bearing mice): no or weak tumor suppression

Compound: N.N.O=C([O-])C1(C(=O)[O-])CCC1.[Pt+2] [carboplatin, reference compound]
- Body weight (g) after (S180 carcinoma; [3]): 18.57/25.75 g
- TIR (%) (S180 carcinoma; [3]): 49.52%
- Tumor weight (g) (X ± SD) (S180 carcinoma; carboplatin experiment, carboplatin 25 mg/kg, ip alone, 10 days before sacrifice): 0.74 ± 0.28 g
